# Test results published in patent US8987256B2, “Oxo-heterocyclic substituted carboxylic acid derivatives and the use thereof” (Bayer Intellectual Property GmbH, priority 2008, dated 2015).
# Assays:
# [1] = molecular target: T1, recombinant guanylate cyclase reporter cell line (Rattus norvegicus, UniProt P20595); assay: sGC-activating activity in the CHO reporter cell in vitro; format: cell-based
# T1 construct: expressed in transfected cells; host or cells: CHO reporter cell line
# T1 sequence (P20595 1-619): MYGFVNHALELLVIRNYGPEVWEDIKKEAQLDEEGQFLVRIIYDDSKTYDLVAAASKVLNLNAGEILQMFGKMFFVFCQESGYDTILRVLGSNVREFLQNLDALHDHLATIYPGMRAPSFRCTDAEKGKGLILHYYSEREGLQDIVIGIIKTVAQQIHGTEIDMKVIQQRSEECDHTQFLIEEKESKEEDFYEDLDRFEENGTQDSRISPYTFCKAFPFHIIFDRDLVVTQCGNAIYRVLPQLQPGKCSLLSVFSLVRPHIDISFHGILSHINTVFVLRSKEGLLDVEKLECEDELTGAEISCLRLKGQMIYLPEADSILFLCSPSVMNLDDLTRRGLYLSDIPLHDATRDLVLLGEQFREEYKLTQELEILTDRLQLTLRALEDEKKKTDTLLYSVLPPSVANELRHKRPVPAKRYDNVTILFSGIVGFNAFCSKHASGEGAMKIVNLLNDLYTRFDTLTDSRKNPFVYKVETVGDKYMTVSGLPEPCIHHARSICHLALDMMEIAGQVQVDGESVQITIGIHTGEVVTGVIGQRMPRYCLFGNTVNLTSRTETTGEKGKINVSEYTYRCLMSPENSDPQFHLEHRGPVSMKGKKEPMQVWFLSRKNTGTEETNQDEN
# T1 sequence (P19686 1-690 partner): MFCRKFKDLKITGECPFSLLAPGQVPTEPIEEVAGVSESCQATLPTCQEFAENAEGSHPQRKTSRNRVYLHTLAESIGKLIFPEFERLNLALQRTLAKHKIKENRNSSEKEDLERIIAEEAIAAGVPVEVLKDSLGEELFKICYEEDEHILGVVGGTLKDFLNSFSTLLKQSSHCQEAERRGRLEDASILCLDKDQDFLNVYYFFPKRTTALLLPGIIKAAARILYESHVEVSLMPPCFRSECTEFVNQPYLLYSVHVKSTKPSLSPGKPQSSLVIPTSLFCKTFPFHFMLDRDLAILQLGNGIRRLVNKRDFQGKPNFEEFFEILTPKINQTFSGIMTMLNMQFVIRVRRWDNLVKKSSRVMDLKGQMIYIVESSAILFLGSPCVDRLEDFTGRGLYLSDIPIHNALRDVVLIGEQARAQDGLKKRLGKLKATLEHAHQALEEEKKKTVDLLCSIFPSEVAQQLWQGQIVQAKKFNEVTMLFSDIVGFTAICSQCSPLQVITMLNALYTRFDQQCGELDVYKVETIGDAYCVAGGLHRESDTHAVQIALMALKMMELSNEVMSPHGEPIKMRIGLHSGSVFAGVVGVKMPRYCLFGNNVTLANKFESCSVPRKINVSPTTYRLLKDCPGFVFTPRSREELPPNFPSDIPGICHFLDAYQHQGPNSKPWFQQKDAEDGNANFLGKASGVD
# Protocol: The cellular action of the compounds according to the invention is determined at a recombinant guanylate cyclase reporter cell line, as described in F. Wunder et al., Anal. Biochem. 339, 104-112 (2005).
# [2] = molecular target: T2, soluble guanylate cyclase (sGC) (Rattus norvegicus, UniProt P20595); assay: Activating action at the sGC enzyme in vitro (PPi detection, luciferase); format: biochemical; settings: for EC50: read-out: EC50 (concentration at 50% of maximum efficacy), activating action at the sGC enzyme
# T2 construct: made in house; host or cells: baculovirus/Sf9 insect cells
# T2 sequence (P20595 1-619): T1 sequence (P20595 1-619)
# T2 sequence (P19686 1-690 partner): T1 sequence (P19686 1-690 partner)
# Protocol: Soluble guanylate cyclase (sGC) converts on stimulation GTP into cGMP and pyrophosphate (PPi). PPi is detected with the aid of the assay described below. The signal produced in the assay increases as the reaction progresses and serves as a measure of the sGC enzyme activity under the given stimulation.
# To carry out the assay, 29 μl of enzyme solution [0-10 nM soluble guanylate cyclase (prepared according to Honicka et al., J. Mol. Med. 77, 14-23 (1999)) in 50 mM TEA, 2 mM MgCl2, 0.1% BSA (fraction V), 0.005% Brij®, pH 7.5] are initially introduced into a microplate, and 1 μl of the substance to be tested (as a serially diluted solution in DMSO) is added. The mixture is incubated at room temperature for 10 min. Then 20 μl of detection mix [1.2 nM Firefly Luciferase (Photinus pyralis luciferase, Promega), 29 μM dehydroluciferin (prepared according to Bitler & McElroy, Arch. Biochem. Biophys. 72, 358 (1957)), 122 μM luciferin (Promega), 153 μM ATP (Sigma) and 0.4 mM DTT (Sigma) in 50 mM TEA, 2 mM MgCl2, 0.1% BSA (fraction V), 0.005% Brij®, pH 7.5] are added. The enzyme reaction is started by adding 20 μl of substrate solution [1.25 mM guanosine 5′-triphosphate (Sigma) in 50 mM TEA, 2 mM MgCl2, 0.1% BSA (fraction V), 0.005% Brij®, pH 7.5] and measured continuously in a luminometer. The extent of the stimulation by the substance to be tested can be determined relative to the signal of the unstimulated reaction.
# The activation of heme-free guanylate cyclase is examined by addition of 25 μM of 1H-1,2,4-oxadiazolo[4,3-a]quinoxalin-1-one (ODQ) to the enzyme solution and subsequent incubation for 30 minutes and compared to the stimulation of the native enzyme.
# saphenous artery rings = assay: Vasorelaxant effect in vitro (phenylephrine-contracted artery rings); set-up: species or system Rabbits; settings: Oryctolagus cuniculus, concentration reducing phenylephrine-induced contraction by 50%
# Protocol: Rabbits are anesthetized and sacrificed by intravenous injection of thiopental sodium (about 50 mg/kg) and exsanguinated. The saphenous artery is removed and divided into rings 3 mm wide. The rings are mounted singly on in each case a pair of triangular hooks open at the end and made of 0.3 mm-thick special wire (Remanium®). Each ring is placed under an initial tension in 5 ml organ baths with Krebs-Henseleit solution which is at 37° C., is gassed with carbogen and has the following composition: NaCl 119 mM; KCl 4.8 mM; CaCl2×2H2O 1 mM; MgSO4×7H2O 1.4 mM; KH2PO4 1.2 mM; NaHCO3 25 mM; glucose 10 mM; bovine serum albumin 0.001%. The force of contraction is detected with Statham UC2 cells, amplified and digitized via A/D converters (DAS-1802 HC, Keithley Instruments, Munich) and recorded in parallel on chart recorders. Contractions are induced by addition of phenylephrine.
# After several (generally 4) control cycles, the substance to be investigated is added in each further run in increasing dosage, and the level of the contraction achieved under the influence of the test substance is compared with the level of the contraction reached in the last preceding run. The concentration necessary to reduce the contraction reached in the preceding control by 50% is calculated from this (IC50). The standard application volume is 5 μl. The proportion of DMSO in the bath solution corresponds to 0.1%.
"MEC (minimum effective concentration), sGC-activating activity in the CHO reporter cell [1]","MEC (minimum effective concentration), activating action at the sGC enzyme [2]",EC50 [2],IC50 (saphenous artery rings),SMILES
3 nM,1.2 nM,17 nM,,"O=C(Nc1cccc(CC2(C(=O)O)CC2)c1)C(c1ccc(CN2N=C(c3ccccc3)OCC2=O)cc1)C1CCC(F)(F)C1 (single isomer, unassigned) [Example 241, 1-(3-{[(3,3-Difluorocyclopentyl) {4-[(5-oxo-2-phenyl-5,6-dihydro-4H-1,3,4-oxadiazin-4-yl)-methyl]phenyl}acetyl]amino}benzyl)cyclopropanecarboxylic acid]"
3 nM,,,345 nM,"CCC(C)C(C(=O)Nc1cccc(CC(C)(C)C(=O)O)c1)c1ccc(CN2N=C(c3ccccc3)OCC2=O)cc1 (centres unmarked) [Example 143, 2,2-dimethyl-3-{3-[(3-methyl-2-{4-[(5-oxo-2-phenyl-5,6-dihydro-4H-1,3,4-oxadiazin-4-yl)methyl]phenyl}-pentanoyl)amino]phenyl}propanoic acid]"
3 nM,1 nM,11 nM,,"CCC(C(C(=O)Nc1cccc(CC2(C(=O)O)CC2)c1)c1ccc(CN2N=C(c3ccccc3)OCC2=O)cc1)C(F)(F)F (centres unmarked) [Example 170, 1-(3-{[2-{4-[(5-oxo-2-phenyl-5,6-dihydro-4H-1,3,4-oxadiazin-4-yl)methyl]phenyl}-3-(trifluoromethyl)-pentanoyl]amino}benzyl)cyclopropanecarboxylic acid]"
30 nM,3.7 nM,59 nM,,"Cc1ccc(=O)n(Cc2ccc(C(C(=O)Nc3cccc(CC4(C(=O)O)CC4)c3)C3CCCC3)cc2)n1 (centres unmarked) [Example 171, 1-{3-[(cyclopentyl{4-[(3-methyl-6-oxopyridazin-1(6H)-yl)methyl]phenyl}acetyl)amino]benzyl}-cyclopropanecarboxylic acid]"
30 nM,10 nM,320 nM,,"O=C(Nc1cccc(CC2(C(=O)O)CC2)c1)C(c1ccc(Cn2ccc(C(F)(F)F)cc2=O)cc1)C1CCCC1 (centres unmarked) [Example 176, 1-(3-{[cyclopentyl(4-{[2-oxo-4-(trifluoromethyl)-pyridin-1(2H)-yl]methyl}phenyl)acetyl]amino}-benzyl)cyclopropanecarboxylic acid]"
3 nM,7 nM,240 nM,,"CC(C(C(=O)Nc1cccc(CCC(=O)O)c1Cl)c1ccc(CN2N=C(c3ccccc3)OCC2=O)cc1)C(F)(F)F (centres unmarked) [Example 184, 3-{2-chloro-3-[(4,4,4-trifluoro-3-methyl-2-{4-[(5-oxo-2-phenyl-5,6-dihydro-4H-1,3,4-oxadiazin-4-yl)methyl]-phenyl}butanoyl)amino]phenyl}propanoic acid]"
3 nM,0.5 nM,11 nM,,C[C@H]([C@H](C(=O)Nc1cccc(CC2(C(=O)O)CC2)c1)c1ccc(CN2Cc3ccccc3C2=O)cc1)C(F)(F)F [Example 207]
3 nM,1.2 nM,24 nM,,O=C(Nc1cccc(CC2(C(=O)O)CC2)c1)C(c1ccc(CN2Cc3c(F)cccc3C2=O)cc1)C1CCCC1 (centres unmarked) [Example 213]
0.2 nM,0.2 nM,3.6 nM,,C[C@H]([C@H](C(=O)Nc1cccc(CC2(C(=O)O)CC2)c1)c1ccc(CN2Cc3c(F)cccc3C2=O)cc1)C(F)(F)F [Example 219]
0.3 nM,2 nM,75 nM,,C[C@@H]([C@@H](C(=O)Nc1cccc(CC2(C(=O)O)CC2)c1)c1ccc(CN2Cc3c(F)cccc3C2=O)cc1)C(F)(F)F [Example 220]
30 nM,8.1 nM,420 nM,,O=C(O)CCc1cc(F)cc(NC(=O)C(c2ccc(CN3N=C(c4ccccc4)OCC3=O)cc2)C2CCCC2)c1 (centres unmarked) [Example 230]
0.2 nM,0.4 nM,5.2 nM,,O=C(Nc1cc(CC2(C(=O)O)CC2)ccc1F)C(c1ccc(CN2N=C(c3ccccc3)OCC2=O)cc1)C1CCCC1 (centres unmarked) [Example 231]
20 nM,93 nM,1100 nM,,O=C(O)CCc1cc(NC(=O)C(c2ccc(CN3N=C(c4ccccc4)OCC3=O)cc2)C2CCCC2)ccc1F (centres unmarked) [Example 232]
0.3 nM,3.3 nM,78 nM,,O=C(Nc1cccc(CC2(C(=O)O)CC2)c1F)C(c1ccc(CN2N=C(c3ccccc3)OCC2=O)cc1)C1CCCC1 (centres unmarked) [Example 233]
1 nM,4.1 nM,220 nM,,O=C(Nc1ccc(F)c(CC2(C(=O)O)CC2)c1)C(c1ccc(CN2N=C(c3ccccc3)OCC2=O)cc1)C1CCCC1 (centres unmarked) [Example 234]
